# Measurements from US6569903B2, “Ophthalmic compositions” (Rohto Pharmaceutical Co., Ltd., priority 1999, dated 2003).
# Counter-ions that a name gives are not always drawn.
# Experiments:
# [1] = test system: Japanese albino strain male rabbits; assay: Tear protein secretion promoting action of eye drops (Test Example 2); type: in vivo, rabbit; conditions: 0.1 w/v % eye drops, 50 μl instilled into one eye, vs basal concentration
# Method: Using Japanese albino strain male rabbits, eye drops containing adrenergic β receptor agonists were examined for their actions to promote the tear protein secretion.
# Prior to use, each adrenergic β receptor agonist was dissolved in a phosphate buffer solution to prepare 0.1 w/v % solution, and adjusted to the pH ranging 6.0 to 7.5. Compounds and compositions of eye drops used in this experiment are shown below using the phosphate buffer solution as control.
# Six rabbits (12 weeks old, weighing 2.0 to 2.5 kg) were used in each group. A test solution (50 μl) was instilled into one eye of the rabbit, and protein concentrations in tears were measured for 5 minutes from 15 to 10 min prior to the instillation of the test solution, for 5 minutes from 5 to 10 min and for 5 minutes from 20 to 25 min after the instillation, three times in total, using the following method. A local anesthetic, 0.4 w/v % oxybuprocaine hydrochloride solution (Santen Pharmaceutical) (50 μl) was instilled into one eye of the rabbit, 5 min later the remaining eye drops and tears were once soaked up using a water absorbing paper, and then a previously weighed filter paper (5×35 mm) was inserted in the lower eyelid area. Five minutes later, the filter paper was recovered, weighed and the increment in weight was taken as the amount of secreted tears. Immediately after measuring the amount of secreted tears, the filter paper thus recovered was placed in a 1.5-ml test tube, 1 ml of the phosphate buffer solution (pH 7.4) was added thereto, and the test tube was stirred for 30 s. After the removal of the filter paper followed by the centrifugation of the solution at 3,000 rpm for 5 min, a stain reagent of Bio-Rad protein assay kit was added to the supernatant to measure the amount of protein and calculate the total amount of protein in the filter paper. From the total amount of protein and that of secreted tears, the protein concentration in tears was calculated.
# With the protein concentration in tears prior to the instillation of a test solution taken as a basal protein concentration, ratios of increases in respective protein concentrations relative to the basal protein concentration were used as the rate of increase in protein concentration in tears (%)
# β2 adrenergic receptor = target: T1, β2 adrenergic receptor (Cavia porcellus, UniProt Q8K4Z4); conditions: cited from earlier work
# T1 construct: a relaxation of smooth muscle (EC50) in an excised trachea or uterus; from tissue; host or cells: excised trachea (tracheal smooth muscle)
# T1 sequence (Q8K4Z4 whole entry): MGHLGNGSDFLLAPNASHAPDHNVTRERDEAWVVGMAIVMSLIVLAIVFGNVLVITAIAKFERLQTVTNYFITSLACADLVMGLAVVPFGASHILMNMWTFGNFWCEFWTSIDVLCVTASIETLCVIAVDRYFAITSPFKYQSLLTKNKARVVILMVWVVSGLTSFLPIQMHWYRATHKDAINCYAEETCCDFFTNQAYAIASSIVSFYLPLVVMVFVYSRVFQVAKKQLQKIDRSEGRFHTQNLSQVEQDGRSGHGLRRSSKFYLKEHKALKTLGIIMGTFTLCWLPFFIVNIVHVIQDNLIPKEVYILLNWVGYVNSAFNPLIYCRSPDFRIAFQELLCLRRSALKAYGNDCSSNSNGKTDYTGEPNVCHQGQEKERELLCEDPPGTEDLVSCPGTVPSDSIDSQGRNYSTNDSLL
# [2] = test system: Japanese albino strain male rabbits; assay: Tear secretion promoting action of eye drops (Test Example 1); type: in vivo, rabbit; conditions: 0.1 w/v % eye drops, 50 μl instilled into one eye, vs basal secretion amount
# Method: Using Japanese albino strain male rabbits, eye drops containing adrenergic β receptor agonists were examined for their tear secretion promoting actions.
# Prior to use, each adrenergic β receptor agonist was dissolved in a phosphate buffer solution to prepare a 0.1 w/v % solution, which was adjusted to the pH ranging 6.0 to 7.5. Compounds used in this experiment are shown below. The phosphate buffer solution served as control.
# Six rabbits (12 weeks old, weighing 2.0 to 2.5 kg) were used in each group. A test solution (50 μl) was instilled into one eye of the rabbit, and amounts of tears secreted were measured for 5 minutes from 15 to 10 min prior to the instillation of the test solution, for 5 minutes from 5 to 10 min and for 5 minutes from 20 to 25 min after the instillation, three times in total, by the following method. A local anesthetic, 0.4 w/v % oxybuprocaine hydrochloride solution (Santen Pharmaceutical) (50 μl) was instilled into one eye of the rabbit, 5 min later the remaining eye drops and tears were once soaked up using a water absorbing paper, and then a previously weighed filter paper (5×35 mm) was inserted in the lower eyelid area. Five minutes later, the filter paper was recovered, weighed and the increment in weight was taken as the amount of secreted tears. With the amount of secreted tears prior to the instillation of a test solution taken as a basal secretion amount, ratios of increases in the amount of secreted tears to the basal secretion amount were used as the rate of increase in the tear secretion (%).
# [3] = test system: Japanese albino strain male rabbits; assay: Tear secretion after systemic (ear vein) administration (Test Example 3); type: in vivo, rabbit; conditions: for Rate of increase in tear secretion (%): 50 μg/rabbit into the ear vein
# Method: (§1) Using Japanese albino strain male rabbits, injections containing selective adrenergic β2 receptor agonists were examined for their actions to promote the tear secretion and the protein secretion in tears.
# (§2) Prior to use, clenbuterol hydrochloride was dissolved in a physiological saline (concentration 50 μg/ml), and adjusted to the pH in the range 6.0 to 7.5. The physiological saline was used as control.
# (§3) Six rabbits (11 to 12 weeks old, weighing 2.4 to 2.6 kg) were used in each group. The test solution (50 μg/rabbit) was administered into the ear vein, and amounts of tears secreted were measured 15 to 10 min prior to the administration of the test solution, 5 to 10 min, 20 to 25 min, 40 to 45 min, 60 to 65 min and 120 to 125 min after the administration, six times in total, by the following method. A local anesthetic, 0.4 w/v % oxybuprocaine hydrochloride solution (Santen Pharmaceutical) (50 μl) was instilled into one eye of a rabbit, 5 min later the remaining eye drops and tears were once soaked up using a water absorbing paper, and then a previously weighed filter paper (5×35 mm) was inserted in the lower eyelid area. Five minutes later, the filter paper was recovered, weighed and the increment in weight was taken as the amount of secreted tears. After measuring the amount of secreted tears, the filter paper thus recovered was placed in a 1.5-ml test tube, 1 ml of the phosphate buffer solution (pH 7.4) was added thereto, and the test tube was vortexed for 30 s. After the removal of the filter paper, followed by the centrifugation at 3,000 rpm for 5 min, a stain reagent of Bio-Rad protein assay kit was added to the supernatant to measure the amount of protein and calculate a total amount of protein in the filter paper. From the total amount of protein and that of secreted tears, the protein concentration in tears was calculated. With the amount of secreted tears prior to the administration of a test solution taken as the basal secretion amount, ratios of increases in the secreted tears to the basal secretion amount were used as the rate of increase in the tear secretion (%). In addition, with the protein concentration in tears prior to the administration of a test solution taken as the basal protein concentration, ratios of increases in respective protein concentrations relative to the basal protein concentration were used as the rate of increase in protein concentration in tears (%).
# [4] = test system: Japanese albino strain male rabbits; assay: Protein concentration in tears after systemic (ear vein) administration (Test Example 3); type: in vivo, rabbit; conditions: for Rate of increase in protein concentration in tears (%): 50 μg/rabbit into the ear vein
# Method: as §1, §2, §3
# [5] = for 5 minutes from 5 to 10 min after instillation
# [6] = for 5 minutes from 20 to 25 min after instillation
# [7] = 120-125 min after administration
# [8] = intravenous administration, result in words
smiles,measurement,setting,value
"CC(Cc1ccc(O)cc1)NCC(O)c1cc(O)cc(O)c1 (stereo not drawn) [Fenoterol hydrobromide, fenoterol hydrobromide]",Rate of increase in tear protein concentration,[1]; [5],16%
same,Rate of increase in tear protein concentration,[1]; [6],43%
same,"Relative specificity to the tracheal smooth muscle, higher than that of isoproterenol",β2 adrenergic receptor,about 20 times
same,Rate of increase in tear secretion,[2]; [5],144%
same,Rate of increase in tear secretion,[2]; [6],49%
CC(C)(C)NCC(O)c1ccc(O)c(CO)c1 (stereo not drawn) [salbutamol],"Relative specificity to the tracheal smooth muscle, higher than that of isoproterenol",β2 adrenergic receptor,about 30 times
"CCC(NC(C)C)C(O)c1ccc(O)c2[nH]c(=O)ccc12 (stereo not drawn) [Procaterol hydrochloride, procaterol hydrochloride]",Rate of increase in tear protein concentration,[1]; [5],76%
same,Rate of increase in tear protein concentration,[1]; [6],109%
same,"Relative specificity to the tracheal smooth muscle, higher than that of isoproterenol",β2 adrenergic receptor,about 2000 times
same,Rate of increase in tear secretion,[2]; [5],118%
same,Rate of increase in tear secretion,[2]; [6],43%
CC(C)(C)NCC(O)c1ccc(O)c(CO)n1 (stereo not drawn) [pirbuterol],"Relative specificity to the tracheal smooth muscle, higher than that of isoproterenol",β2 adrenergic receptor,about 260 times
"CC(CCc1ccc(O)cc1)NCCc1ccc(O)c(O)c1 (stereo not drawn) [Dobutamine, dobutamine hydrochloride]",Rate of increase in tear protein concentration,[1]; [5],9%
same,Rate of increase in tear protein concentration,[1]; [6],−19%
same,Rate of increase in tear secretion,[2]; [5],8%
same,Rate of increase in tear secretion,[2]; [6],−29%
"CC(C)(C)NCC(O)c1cc(Cl)c(N)c(Cl)c1 (stereo not drawn) [Clenbuterol hydrochloride, clenbuterol hydrochloride]",Rate of increase in tear secretion (%),[3]; 5-10 min after administration,155%
same,Rate of increase in tear secretion (%),[3]; 20-25 min after administration,146%
same,Rate of increase in tear secretion (%),[3]; 40-45 min after administration,133%
same,Rate of increase in tear secretion (%),[3]; 60-65 min after administration,68%
same,Rate of increase in tear secretion (%),[3]; [7],58%
same,Amount of tear secretion,[3]; [8],significant increases
same,Rate of increase in protein concentration in tears (%),[4]; 5-10 min after administration,139%
same,Rate of increase in protein concentration in tears (%),[4]; 20-25 min after administration,148%
same,Rate of increase in protein concentration in tears (%),[4]; 40-45 min after administration,179%
same,Rate of increase in protein concentration in tears (%),[4]; 60-65 min after administration,188%
same,Rate of increase in protein concentration in tears (%),[4]; [7],171%
same,Protein concentration in tears,[4]; [8],significant increases
same,Rate of increase in tear protein concentration,[1]; [5],16%
same,Rate of increase in tear protein concentration,[1]; [6],53%
same,"Relative specificity to the tracheal smooth muscle, higher than that of isoproterenol",β2 adrenergic receptor,about 7000 times
same,Rate of increase in tear secretion,[2]; [5],36%
same,Rate of increase in tear secretion,[2]; [6],29%
